PubChem BioAssay (NCI)
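Grown in 96-well plates, cells were treated for 48 hours with each compound at five concentrations. Insufficient inhibition: endpoint recorded as highest concentration tested. Definition used: TGI = concentration required for complete inhibition of growth.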

Experiments:
Assay in all cases: DTP human tumour cell line panel, 48 h
NCI-H460 lung = system: NCI-H460 lung
OVCAR-3 ovarian = system: OVCAR-3 ovarian
HOP-92 NSCLC = system: HOP-92 NSCLC
UO-31 renal = system: UO-31 renal
RPMI-8226 leukemia = system: RPMI-8226 leukemia
MDA-N = system: MDA-N
M14 melanoma = system: M14 melanoma
HT29 colon = system: HT29 colon
OVCAR-5 ovarian = system: OVCAR-5 ovarian
SK-MEL-2 melanoma = system: SK-MEL-2 melanoma
MCF7 breast = system: MCF7 breast
HS 578T breast = system: HS 578T breast
BT-549 breast = system: BT-549 breast
A549 NSCLC = system: A549 NSCLC
KM12 colon = system: KM12 colon
UACC-257 melanoma = system: UACC-257 melanoma
DU-145 prostate = system: DU-145 prostate
SNB-75 CNS = system: SNB-75 CNS
OVCAR-4 ovarian = system: OVCAR-4 ovarian
A498 renal = system: A498 renal
IGROV1 ovarian = system: IGROV1 ovarian
UACC-62 melanoma = system: UACC-62 melanoma
SW-620 colon = system: SW-620 colon
SR leukemia = system: SR leukemia
SF-295 CNS = system: SF-295 CNS
PC-3 prostate = system: PC-3 prostate
SNB-19 CNS = system: SNB-19 CNS
SK-MEL-28 melanoma = system: SK-MEL-28 melanoma
HL-60(TB) leukemia = system: HL-60(TB) leukemia
U251 CNS = system: U251 CNS
TK-10 renal = system: TK-10 renal
NCI-H522 lung = system: NCI-H522 lung
MOLT-4 leukemia = system: MOLT-4 leukemia
SN12C renal = system: SN12C renal
K-562 leukemia = system: K-562 leukemia
T-47D breast = system: T-47D breast
HCT-116 colon = system: HCT-116 colon
MDA-MB-435 = system: MDA-MB-435
OVCAR-8 ovarian = system: OVCAR-8 ovarian
SF-268 CNS = system: SF-268 CNS
HOP-62 NSCLC = system: HOP-62 NSCLC
HCT-15 colon = system: HCT-15 colon
NCI-H226 lung = system: NCI-H226 lung
EKVX NSCLC = system: EKVX NSCLC
SF-539 CNS = system: SF-539 CNS
786-0 renal = system: 786-0 renal
LOX IMVI melanoma = system: LOX IMVI melanoma
ACHN renal = system: ACHN renal
SK-OV-3 ovarian = system: SK-OV-3 ovarian
MALME-3M melanoma = system: MALME-3M melanoma
MDA-MB-231 breast = system: MDA-MB-231 breast
CAKI-1 renal = system: CAKI-1 renal
RXF 393 renal = system: RXF 393 renal
NCI-H23 lung = system: NCI-H23 lung
NCI/ADR-RES ovarian = system: NCI/ADR-RES ovarian
SK-MEL-5 melanoma = system: SK-MEL-5 melanoma

Question: What does the source list for `O=C(O)CN1C(=O)C(Cc2ccc(O)cc2)N=C(c2cccc(O)c2)c2ccccc21` (stereo not drawn)?
Answer: TGI (NCI-H460 lung): > 100 µM; TGI (OVCAR-3 ovarian): > 100 µM; TGI (HOP-92 NSCLC): > 100 µM; TGI (UO-31 renal): > 100 µM; TGI (RPMI-8226 leukemia): > 100 µM; TGI (MDA-N): 26 µM; TGI (M14 melanoma): > 100 µM; TGI (HT29 colon): > 100 µM; TGI (OVCAR-5 ovarian): > 100 µM; TGI (SK-MEL-2 melanoma): > 100 µM; TGI (MCF7 breast): > 100 µM; TGI (HS 578T breast): > 100 µM; TGI (BT-549 breast): > 100 µM; TGI (A549 NSCLC): > 100 µM; TGI (KM12 colon): > 100 µM; TGI (UACC-257 melanoma): > 100 µM; TGI (DU-145 prostate): > 100 µM; TGI (SNB-75 CNS): > 100 µM; TGI (OVCAR-4 ovarian): > 100 µM; TGI (A498 renal): 25.3 µM; TGI (IGROV1 ovarian): > 100 µM; TGI (UACC-62 melanoma): > 100 µM; TGI (SW-620 colon): > 100 µM; TGI (SR leukemia): > 100 µM; TGI (SF-295 CNS): > 100 µM; TGI (PC-3 prostate): > 100 µM; TGI (SNB-19 CNS): > 100 µM; TGI (SK-MEL-28 melanoma): > 100 µM; TGI (HL-60(TB) leukemia): > 100 µM; TGI (U251 CNS): > 100 µM; TGI (TK-10 renal): > 100 µM; TGI (NCI-H522 lung): > 100 µM; TGI (MOLT-4 leukemia): > 100 µM; TGI (SN12C renal): 34.8 µM; TGI (K-562 leukemia): > 100 µM; TGI (T-47D breast): > 100 µM; TGI (HCT-116 colon): > 100 µM; TGI (MDA-MB-435): > 100 µM; TGI (OVCAR-8 ovarian): > 100 µM; TGI (SF-268 CNS): > 100 µM; TGI (HOP-62 NSCLC): > 100 µM; TGI (HCT-15 colon): > 100 µM; TGI (NCI-H226 lung): > 100 µM; TGI (EKVX NSCLC): > 100 µM; TGI (SF-539 CNS): > 100 µM; TGI (786-0 renal): > 100 µM; TGI (LOX IMVI melanoma): > 100 µM; TGI (ACHN renal): > 100 µM; TGI (SK-OV-3 ovarian): > 100 µM; TGI (MALME-3M melanoma): > 100 µM; TGI (MDA-MB-231 breast): > 100 µM

Question: `BrC(c1cccc2ccccc12)c1cccc2ccccc12` was tested. Which TGI (NCI-H460 lung) did it give?
Answer: 30.4 µM

Question: And the TGI (OVCAR-3 ovarian)?
Answer: 24.2 µM

Question: And the TGI (HOP-92 NSCLC)?
Answer: 28.8 µM

Question: What about the TGI (UO-31 renal) of the same molecule?
Answer: > 100 µM

Question: What about the TGI (RPMI-8226 leukemia) of the same molecule?
Answer: > 100 µM

Question: What about the TGI (MDA-N) of the same molecule?
Answer: 32.6 µM

Question: And the TGI (M14 melanoma)?
Answer: 37.6 µM

Question: And the TGI (HT29 colon)?
Answer: 35.8 µM

Question: And the TGI (CAKI-1 renal)?
Answer: 50.1 µM

Question: And the TGI (OVCAR-5 ovarian)?
Answer: 84.9 µM

Question: And the TGI (SK-MEL-2 melanoma)?
Answer: 30.1 µM

Question: What about the TGI (BT-549 breast) of the same molecule?
Answer: 39.3 µM

Question: What about the TGI (A549 NSCLC) of the same molecule?
Answer: > 100 µM

Question: What about the TGI (KM12 colon) of the same molecule?
Answer: 28.8 µM

Question: What about the TGI (UACC-257 melanoma) of the same molecule?
Answer: 53.3 µM

Question: And the TGI (DU-145 prostate)?
Answer: 26.4 µM

Question: What about the TGI (SNB-75 CNS) of the same molecule?
Answer: 29.1 µM

Question: And the TGI (OVCAR-4 ovarian)?
Answer: 36.1 µM

Question: What about the TGI (A498 renal) of the same molecule?
Answer: 31.4 µM

Question: And the TGI (IGROV1 ovarian)?
Answer: 31.8 µM

Question: And the TGI (UACC-62 melanoma)?
Answer: 27.7 µM

Question: What about the TGI (SW-620 colon) of the same molecule?
Answer: 45.5 µM

Question: What about the TGI (SR leukemia) of the same molecule?
Answer: > 100 µM

Question: What about the TGI (SF-295 CNS) of the same molecule?
Answer: 44.7 µM

Question: And the TGI (PC-3 prostate)?
Answer: 54.1 µM

Question: And the TGI (SNB-19 CNS)?
Answer: > 100 µM

Question: What about the TGI (SK-MEL-28 melanoma) of the same molecule?
Answer: 44.6 µM

Question: What about the TGI (HL-60(TB) leukemia) of the same molecule?
Answer: 51.4 µM

Question: What about the TGI (U251 CNS) of the same molecule?
Answer: 30.6 µM

Question: And the TGI (RXF 393 renal)?
Answer: 27.9 µM

Question: And the TGI (TK-10 renal)?
Answer: > 100 µM

Question: What about the TGI (NCI-H522 lung) of the same molecule?
Answer: 32.3 µM

Question: And the TGI (MOLT-4 leukemia)?
Answer: > 100 µM

Question: And the TGI (SN12C renal)?
Answer: 27.4 µM

Question: What about the TGI (K-562 leukemia) of the same molecule?
Answer: > 100 µM

Question: And the TGI (T-47D breast)?
Answer: > 100 µM

Question: And the TGI (HCT-116 colon)?
Answer: 27.8 µM

Question: What about the TGI (NCI-H23 lung) of the same molecule?
Answer: 43 µM

Question: What about the TGI (MDA-MB-435) of the same molecule?
Answer: 21.2 µM

Question: And the TGI (NCI/ADR-RES ovarian)?
Answer: 44.2 µM

Question: And the TGI (SK-MEL-5 melanoma)?
Answer: 31.4 µM

Question: What about the TGI (OVCAR-8 ovarian) of the same molecule?
Answer: 35.1 µM

Question: And the TGI (SF-268 CNS)?
Answer: 26.6 µM

Question: And the TGI (HOP-62 NSCLC)?
Answer: 27.1 µM

Question: What about the TGI (HCT-15 colon) of the same molecule?
Answer: 42.5 µM

Question: What about the TGI (NCI-H226 lung) of the same molecule?
Answer: 33.5 µM

Question: What about the TGI (EKVX NSCLC) of the same molecule?
Answer: 56.4 µM

Question: What about the TGI (786-0 renal) of the same molecule?
Answer: 28.2 µM

Question: And the TGI (LOX IMVI melanoma)?
Answer: 30.1 µM

Question: What about the TGI (ACHN renal) of the same molecule?
Answer: 52.3 µM

Question: And the TGI (MALME-3M melanoma)?
Answer: 21.1 µM

Question: And the TGI (MDA-MB-231 breast)?
Answer: 28 µM
